Data: US20110245292A1, “2-HYDROXY-ETHANESULFONATE SALT” (AstraZeneca AB, priority 2008, published 2011)
Counter-ions that a name gives are not always drawn.

Assay: Gravimetric Vapour Sorption (GVS)
Assay type: physicochemical
Experimental: Gravimetric Vapour Sorption (GVS) profiles were measured using a Surface Measurements Systems Dynamic Vapour Sorption DVS-1 or a DVS Advantage instrument. The solid sample ca. 1-5 mg was placed into a glass vessel and the weight of the sample was recorded during a dual cycle step method (40 to 90 to 0 to 90 to 0% relative humidity (RH), in steps of 10% RH).

| SMILES | GVS weight increase at 80% RH (80% RH (±0.3%), material of preparation 2) | GVS mass increase at 80% RH (80% RH, material of preparation 1) | GVS mass increase, 1st cycle (1st cycle, sample of preparation 1 (step a)) | GVS mass increase, 2nd cycle (2nd cycle, sample of preparation 1 (step a)) |
| --- | --- | --- | --- | --- |
| O[C@](c1ccccc1)(c1cc(C[N+]23CCC(CC2)[C@@H](Oc2cccc(F)c2)C3)on1)C1CCCCC1 [Salt Form A, (R)-1-[3-((R)-cyclohexyl-hydroxy-phenyl-methyl)-isoxazol-5-ylmethyl]-3-(3-fluoro-phenoxy)-1-azonia-bicyclo[2.2.2]octane 2-hydroxy-ethanesulfonate] | 0.15% | no mass increase |  |  |
| O[C@](c1ccccc1)(c1cc(C[N+]23CCC(CC2)[C@@H](Oc2cccc(F)c2)C3)on1)C1CCCCC1.[Cl-] [(R)-1-[3-((R)-Cyclohexyl-hydroxy-phenyl-methyl)-isoxazol-5-ylmethyl]-3-(3-fluoro-phenoxy)-1-azonia-bicyclo[2.2.2]octane chloride] |  |  | approximately 5% | ~6.5% |
